# Key:
# [1] = test system: quail liver microsomes (CYP); assay: In vitro CYP metabolism of neonicotinoids, quail liver microsomes, metabolites quantified by LC/MS/MS; format: in vitro ADME, quail (Coturnix coturnix)
# Experimental: (§1) All experimental protocols and animal-handling procedures were performed following the guidelines for animal experiments and approved by the Animal Ethics Research Committee of the Faculty of Veterinary Medicine, […] University, Bangkok, Thailand (Approval number: […]-026). Liver samples of chickens (Gallus domesticus, n = 5), ducks (Anas platyrhynchos, n = 5), […] domesticus, n = 3), quails (Coturnix coturnix, n = 5), and rats (Rattus norvegicus, n = 3) were obtained from the previous study. The liver microsomal fractions used in this study were prepared by the method of Omura and Sato [28] with slight modifications. Briefly, liver sample was homogenized with 0.1 M potassium phosphate buffer (KPB, pH 7.4) and centrifuged at 9000× g at 4 °C for 20 min. The supernatant was collected and centrifuged twice at 105,000× g at 4 °C for 60 min. Microsomal pellets were homogenized with 0.1 M KPB and measured for protein concentrations using the BCA protein assay kit (Thermo Fisher Scientific, Rockford, IL, USA) before being frozen using liquid nitrogen, for storage at -80 °C until analysis. […] The accuracy of the current analytical method was validated and determined using matrix-spiked neonicotinoid standards at two concentrations, 1 ng/mL and 10 ng/mL. The thirteen target compounds were detected with recovery rates ranging from 87 to 101% at 1 ng/mL, and 86 to 116% at 10 ng/mL. […]
# [2] = test system: liver microsomes from various species; assay: Metabolite screening by LC/Q-TOF in reaction mixtures using liver microsomes from various species; format: in vitro ADME, chicken, duck, goose, quail, rat
# Experimental: The assay of neonicotinoid metabolism using liver microsome was modified from that of a previous study. Since we had insufficient liver samples to produce the microsomes of geese and quails, the substrates of imidacloprid and clothianidin were not applied for those microsome reactions. However, microsomes of chicken, ducks, and rats were used for all substrate reactions. […] Then, the reaction was initiated by adding a mixture of G6PDH (2 IU/mL) and β-NADPH (0.5 mM), and continuously incubating for 30 min. Then, 0.1% formic acid in acetonitrile was added to stop the reaction. After that, the reaction sample was placed on ice for 15 min before centrifugation at 12,000 g for 10 min. The supernatant (100 μL) was collected and then spiked with neonicotinoid internal standard mixtures (50 μL), then evaporated using a centrifugal evaporator (CVE-200D with UT-2000, EYELA, Tokyo, Japan). The dried sample was re-dissolved with 20% methanol (v/v) and transferred into vials for chemical analysis.
# A liquid chromatograph quadrupole time-of-flight (6546 LC/Q-TOF; Agilent Technologies, Santa Clara, CA, USA) operated with a 1.8 μm Eclipse Plus C18 RRHD analytical column (2.1 × 150 mm; Agilent Technologies, CA, USA) at a flow rate of 0.25 mL/min was used in the screening test to search for chromatographic peaks with the exact molecular mass of the possible neonicotinoid metabolites (Table S3). The mobile phases were 10 mM ammonium formate in water (A) and 10 mM ammonium formate in MeOH (B). The gradient elution of mobile phase B was set as follows: 2% (0–1 min), 100% (1–30 min), continued 100% (30–39 min), and a 4 min post-run at 2%. An injection volume was 5 μL and the column temperature was maintained at 45 °C. The expected formulas of potential metabolites of the four neonicotinoids were derived from previous publications on neonicotinoid metabolites in environment samples [29, 30] and in animals.
# Several neonicotinoid metabolites were formed in our current in vitro biotransformation assays (Table 1).
# [3] = test system: duck liver microsomes (CYP); assay: In vitro CYP metabolism of neonicotinoids, duck liver microsomes, metabolites quantified by LC/MS/MS; format: in vitro ADME, duck (Anas platyrhynchos)
# Experimental: (§2) All experimental protocols and animal-handling procedures were performed following the guidelines for animal experiments and approved by the Animal Ethics Research Committee of the Faculty of Veterinary Medicine, […] University, Bangkok, Thailand (Approval number: […]-026). Liver samples of chickens (Gallus domesticus, n = 5), ducks (Anas platyrhynchos, n = 5), […] domesticus, n = 3), quails (Coturnix coturnix, n = 5), and rats (Rattus norvegicus, n = 3) were obtained from the previous study. The liver microsomal fractions used in this study were prepared by the method of Omura and Sato [28] with slight modifications. Briefly, liver sample was homogenized with 0.1 M potassium phosphate buffer (KPB, pH 7.4) and centrifuged at 9000× g at 4 °C for 20 min. The supernatant was collected and centrifuged twice at 105,000× g at 4 °C for 60 min. Microsomal pellets were homogenized with 0.1 M KPB and measured for protein concentrations using the BCA protein assay kit (Thermo Fisher Scientific, Rockford, IL, USA) before being frozen using liquid nitrogen, for storage at -80 °C until analysis. The assay of neonicotinoid metabolism using liver microsome was modified from that of a previous study. Since we had insufficient liver samples to produce the microsomes of geese and quails, the substrates of imidacloprid and clothianidin were not applied for those microsome reactions. However, microsomes of chicken, ducks, and rats were used for all substrate reactions. […] Then, the reaction was initiated by adding a mixture of G6PDH (2 IU/mL) and β-NADPH (0.5 mM), and continuously incubating for 30 min. Then, 0.1% formic acid in acetonitrile was added to stop the reaction. After that, the reaction sample was placed on ice for 15 min before centrifugation at 12,000 g for 10 min. The supernatant (100 μL) was collected and then spiked with neonicotinoid internal standard mixtures (50 μL), then evaporated using a centrifugal evaporator (CVE-200D with UT-2000, EYELA, Tokyo, Japan). The dried sample was re-dissolved with 20% methanol (v/v) and transferred into vials for chemical analysis. […] For all analyses, mobile phase A consisted of 0.1% formic acid + 10 mM ammonium acetate in distilled water and mobile phase B consisted of 0.1% formic acid + 10 mM ammonium acetate in 100% MeOH. The injection volume of 5 μL, the flow rate of 0.40 mL/min with gradient elution, and a column temperature of 45 °C were used for all experiments. The ion signals were acquired with multiple-reaction monitoring (MRM) in positive ionization mode. In the current study, the liver microsome was spiked with deuterium-labelled internal standards (ISs) of the target neonicotinoids before the extraction and purification processes. […] The calibration curves were created using 10-point calibration standards ranging from 0.05 to 20 ng/mL. […] The accuracy of the current analytical method was validated and determined using matrix-spiked neonicotinoid standards at two concentrations, 1 ng/mL and 10 ng/mL. The thirteen target compounds were detected with recovery rates ranging from 87 to 101% at 1 ng/mL, and 86 to 116% at 10 ng/mL. […] In the current study, all the assays were performed in duplicates and the negative controls (the reaction mixture without substrate) were prepared for each sample. […] Statistical analyses were conducted using the JMP […] software (SAS Institute, Carry, NC, USA). One-way ANOVA with post-hoc Tukey-Kramer multiple comparison test was used to compare the Vmax/Km ratio among species. All results were presented as the mean ± standard deviation (SD).
# [4] = test system: goose liver microsomes (CYP); assay: In vitro CYP metabolism of neonicotinoids, goose liver microsomes, metabolites quantified by LC/MS/MS; format: in vitro ADME, goose (Anser domesticus)
# Experimental: as §1
# [5] = test system: chicken liver microsomes (CYP); assay: In vitro CYP metabolism of neonicotinoids, chicken liver microsomes, metabolites quantified by LC/MS/MS; format: in vitro ADME, chicken (Gallus domesticus)
# Experimental: as §2
# [6] = test system: rat liver microsomes (CYP); assay: In vitro CYP metabolism of neonicotinoids, rat liver microsomes, metabolites quantified by LC/MS/MS; format: in vitro ADME
# Experimental: as §2
# fish leukocytes = test system: fish leukocytes; design: method as in PMID 38594566; conditions: compared with parent substances; cited from earlier work
# [7] = test system: nicotinic acetylcholine receptors; conditions: cited from earlier work
# [8] = imidacloprid to 4OH-imidacloprid
# [9] = imidacloprid to 5OH-imidacloprid
# [10] = imidacloprid to dn-imidacloprid
# [11] = imidacloprid to imidacloprid-olefin
# [12] = clothianidin to clothianidin-urea
# [13] = clothianidin to dm-clothianidin
# [14] = clothianidin to dn-clothianidin
smiles,measurement,setting,value
C/C(=N\C#N)N(C)Cc1ccc(Cl)nc1 [Acetamiprid],Vmax,[1]; acetamiprid to dm-acetamiprid,0.3 ± 0.1 pmol/min/mg protein
same,Species in which metabolite N-[(6-chloro-3-pyridyl) methyl]-N-methyl acetamidine was identified,[2]; substrate acetamiprid 800 µM,"Duck, Goose, Quail, Rat"
same,Species in which metabolite N-desmethyl-acetamiprid was identified,[2]; substrate acetamiprid 800 µM,"Chicken, Duck, Goose, Quail, Rat"
same,Species in which metabolite N-methyl(6-chloro-3-pyridyl) methylamine was identified,[2]; substrate acetamiprid 800 µM,"Chicken, Duck, Goose, Quail, Rat"
same,Vmax,[3]; acetamiprid to dm-acetamiprid,0.4 ± 0.0 pmol/min/mg protein
same,Vmax,[4]; acetamiprid to dm-acetamiprid,1.3 ± 0.2 pmol/min/mg protein
same,Vmax,[5]; acetamiprid to dm-acetamiprid,1.2 ± 0.0 pmol/min/mg protein
same,Vmax,[6]; acetamiprid to dm-acetamiprid,0.1 ± 0.0 pmol/min/mg protein
"NC1=NCCN1Cc1ccc(Cl)nc1 [dn-imidacloprid, desnitro-imidacloprid]",Cytotoxicity potency on fish leukocytes,fish leukocytes,higher cytotoxicity potency on fish leukocytes than their parent substances
same,Affinity for nicotinic acetylcholine receptors,[7]; compared with imidacloprid,higher affinity for nicotinic acetylcholine receptors than imidacloprid
CN1COCN(Cc2cnc(Cl)s2)/C1=N\[N+](=O)[O-] [Thiamethoxam],Vmax,[1]; thiamethoxam to clothianidin,0.4 ± 0.1 pmol/min/mg protein
same,Species in which metabolite N-desmethyl-thiamethoxam was identified,[2]; substrate thiamethoxam 800 µM,"Chicken, Duck, Goose, Quail, Rat"
same,Species in which metabolite clothianidin was identified,[2]; substrate thiamethoxam 800 µM,"Chicken, Duck, Goose, Quail, Rat"
same,Species in which metabolite clothianidin-urea was identified,[2]; substrate thiamethoxam 800 µM,"Chicken, Duck, Goose, Quail, Rat"
same,Species in which metabolite dm-clothianidin was identified,[2]; substrate thiamethoxam 800 µM,Chicken
same,Species in which metabolite thiamethoxam-urea was identified,[2]; substrate thiamethoxam 800 µM,"Chicken, Duck, Goose, Quail, Rat"
same,Vmax,[3]; thiamethoxam to clothianidin,0.1 ± 0.0 pmol/min/mg protein
same,Vmax,[4]; thiamethoxam to clothianidin,0.2 ± 0.1 pmol/min/mg protein
same,Vmax,[5]; thiamethoxam to clothianidin,1.2 ± 0.0 pmol/min/mg protein
same,Vmax,[5]; thiamethoxam to dm-clothianidin,0.01 ± 0.00 pmol/min/mg protein
same,Vmax,[6]; thiamethoxam to clothianidin,0.1 ± 0.0 pmol/min/mg protein
NC(=O)N=C1SCCN1Cc1ccc(Cl)nc1 [thiacloprid-amide],Cytotoxicity potency on fish leukocytes,fish leukocytes,higher cytotoxicity potency on fish leukocytes than their parent substances
O=[N+]([O-])NC1=NCCN1Cc1ccc(Cl)nc1 [Imidacloprid],Vmax,[3]; [8],0.1 ± 0.0 pmol/min/mg protein
same,Vmax,[3]; [9],0.1 ± 0.0 pmol/min/mg protein
same,Vmax,[3]; [10],0.2 ± 0.0 pmol/min/mg protein
same,Vmax,[3]; [11],0.03 ± 0.0 pmol/min/mg protein
same,Vmax,[5]; [8],0.5 ± 0.0 pmol/min/mg protein
same,Vmax,[5]; [9],0.5 ± 0.0 pmol/min/mg protein
same,Vmax,[5]; [10],1.0 ± 0.7 pmol/min/mg protein
same,Vmax,[5]; [11],0.2 ± 0.0 pmol/min/mg protein
same,Vmax,[6]; [8],0.1 ± 0.0 pmol/min/mg protein
same,Vmax,[6]; [9],0.1 ± 0.0 pmol/min/mg protein
same,Vmax,[6]; [10],0.1 ± 0.0 pmol/min/mg protein
CN/C(=N\[N+](=O)[O-])NCc1cnc(Cl)s1 [Clothianidin],Species in which metabolite clothianidin-urea was identified,"[2]; substrate clothianidin 800 µM, goose and quail not analyzed","Chicken, Duck, Rat"
same,Vmax,[3]; [12],0.005 ± 0.001 pmol/min/mg protein
same,Vmax,[3]; [13],2.9 ± 1.3 pmol/min/mg protein
same,Vmax,[3]; [14],0.3 ± 0.1 pmol/min/mg protein
same,Vmax,[5]; [12],0.008 ± 0.001 pmol/min/mg protein
same,Vmax,[5]; [13],4.4 ± 1.2 pmol/min/mg protein
same,Vmax,[5]; [14],0.1 ± 0.0 pmol/min/mg protein
same,Vmax,[6]; [12],0.012 ± 0.002 pmol/min/mg protein
same,Vmax,[6]; [14],0.2 ± 0.0 pmol/min/mg protein
same,Affinity to nicotinic acetylcholine receptors,[7],high affinity to nicotinic acetylcholine receptors

# — PMC11359332, “Characterization of Neonicotinoid Metabolites by Cytochrome P450-Mediated Metabolism in Poultry” (Toxics, 2024)
